The subject of assay [1] is Ube3a−/+ (AS) mice. Briefly: Novel object recognition (nOR) in AS mice. The assay is classed as in vivo. As to the method:
(§1) FIG. 1. IGF-2 reverses most behavioral deficits observed in a mouse model of AS. Experimental timelines are shown above graphs. In all experiments mice received a s.c. injection of either vehicle or IGF-2 (↑) 20 min before either training or testing. All data are expressed as the mean±s.e.m. N=8-12 per group. Two-way analysis of variance (ANOVA) followed by Bonferroni post-hoc tests. *P<0.05, **P<0.01, ***P<0.001. (A) Percentage of time spent freezing before (Pre-US) or after (Post-US) the shock delivery during contextual fear conditioning training and at testing at 24 hours (h) after training (Test) of normal mice (wild type, WT), which served as controls and Ube3a−/+ mice (mouse model of AS, also referred to as mice) injected with vehicle or IGF-2. (B) Percent exploration preference for a novel object compared to a familiar object during novel object recognition of WT and Ube3a−/+ mice injected with vehicle or IGF-2, 20 min before training, tested at 4 h and 24 h after training. (C) Percent of correct alternations (% Correct) in a Y-maze of WT and Ube3a−/+ mice injected with vehicle or IGF-2 before testing (Test). (D) Latency to fall off from a rotating rod by WT and Ube3a−/+ mice injected with vehicle or IGF-2, 20 min before Test, and tested again 3 and 7 days later. (E) Time spent burying marbles by WT and Ube3a−/+ mice injected with vehicle or IGF-2, 20 min before Test. (F) Time spent in the center of an open field by WT and Ube3a−/+ mice following a vehicle or IGF-2 injection given 20 min before Test. The bars for each set from left to right are: WT Vehicle, WT IGF-2, Ube3a−/+ Vehicle, and Ube3a−/+ IGF-2.
(§2) FIG. 5. M6P reverses cognitive and motor deficits in AS mice. Experimental timelines are shown above graphs. In all experiments mice received a s.c. injection of either vehicle or 850 μg/Kg of M6P (IGF-2R.L1 or L1)(↑) 20 min before either training or testing. (A) Percent exploration preference for a novel object compared to a familiar object during the nOR paradigm of WT (Control) and Ube3a−/+(AS) mice injected with vehicle or IGF-2R.L1 20 min before training, and tested at 4 h and 24 h after training. N=4/group. Data are expressed as the mean±s.e.m. Two-way analysis of variance (ANOVA) followed by Bonferroni post-hoc tests. *P<0.05, **P<0.01, ***P<0.001. (B) Percent of correct alternations (% Correct) in a Y-maze of WT and AS mice injected with vehicle or M6P before testing (Test). Data are expressed as the mean (±s.e.m.). (C) Hindlimb clasping scores of WT and AS mice injected with vehicle or IGF-2R.L1, 20 min before Test. Hindlimb clasping scores are measured and expressed as following: If the hindlimbs are consistently splayed outward, away from the abdomen, it is assigned a score of 0. If one hindlimb is retracted toward the abdomen for more than 50% of the time suspended, it receives a score of 1. If both hindlimbs are partially retracted toward the abdomen for more than 50% of the time suspended, it receives a score of 2. If its hindlimbs are entirely retracted and touching the abdomen for more than 50% of the time suspended, it receives a score of 3. Data are expressed in scores. B and C: N=8-14 per group. Two-way analysis of variance (ANOVA) followed by Tukey post-hoc tests. *P<0.05, **P<0.01, ***P<0.001.
FIG. 6. PnM6P reverses memory and motor deficits in AS mice. Experimental timelines are shown above graphs. In all experiments mice received a s.c. injection of either vehicle or 850 μg/Kg of phosphonate-M6P (PnM6P) called IGF-2R.L2 (or L2) (↑) 20 min before either training or testing. (A) Percent exploration preference for a novel object compared to a familiar object during the nOR paradigm of WT (Control) and Ube3a−/+ (AS) mice injected with vehicle or L2 before training, and tested at 4 h, 24 h and 5 days (5 d) after training. N=4/group. Data are expressed as the % mean±s.e.m. (B). […]

Assay [2] deals with Ube3a−/+ (AS) mice. Briefly: Spontaneous alternation in three-arm Y-maze in AS mice. Particulars: s.c. injection 20 min before test (M6P 850 μg/kg). Type of assay: in vivo. As to the method: as §1, with “(D) Latency to fall off from a rotating rod by WT and Ube3a−/+ mice injected with vehicle or IGF-2, 20 min before Test, and tested again 3 and 7 days later. (E) Time spent burying marbles by WT and Ube3a−/+ mice injected with vehicle or IGF-2, 20 min before Test. (F) Time spent in the center of an open field by WT and Ube3a−/+ mice following a vehicle or IGF-2 injection given 20 min before Test. The bars for each set from left to right are: WT Vehicle, WT IGF-2, Ube3a−/+ Vehicle, and Ube3a−/+ IGF-2.” left out
FIG. 5. […] Data are expressed as the mean±s.e.m. […] Data are expressed as the mean (±s.e.m.). […] Hindlimb clasping scores are measured and expressed as following: If the hindlimbs are consistently splayed outward, away from the abdomen, it is assigned a score of 0. […]

Assay [3] has as its target IGF-2 receptor (Homo sapiens, UniProt P11717). Particulars: cited from earlier work.
Assay [4] relates to WT (Control) mice. Nature of the assay: Novel object recognition (nOR) in WT mice. Type of assay: in vivo. As to the method: as §1, §2
FIG. 6. PnM6P reverses memory and motor deficits in AS mice. Experimental timelines are shown above graphs. […] Data are expressed as the % mean±s.e.m. […]

Assay [5] relates to Ube3a−/+ (AS) mice. Briefly: Hindlimb clasping in AS mice. The assay is classed as in vivo. Particulars: 850 μg/kg s.c. 20 min before test. As to the method:
as §2, with “If both hindlimbs are partially retracted toward the abdomen for more than 50% of the time suspended, it receives a score of 2. If its hindlimbs are entirely retracted and touching the abdomen for more than 50% of the time suspended, it receives a score of 3. Data are expressed in scores. B and C: N=8-14 per group. Two-way analysis of variance (ANOVA) followed by Tukey post-hoc tests. *P<0.05, **P<0.01, ***P<0.001.” left out
(§3) FIG. 6. […] Data are expressed as the % mean±s.e.m. […]
L2 injection reversed motor deficits as measured by hindlimb clasping.

For assay [6], the system named is Ube3a−/+ (AS) mice. Nature of the assay: RotaRod test (accelerating rotating rod) in AS mice. The assay is classed as in vivo. To be noted: s.c. injection 20 min before test (L2 850 μg/kg). The method, then:
as §1, with “(D) Latency to fall off from a rotating rod by WT and Ube3a−/+ mice injected with vehicle or IGF-2, 20 min before Test, and tested again 3 and 7 days later. (E) Time spent burying marbles by WT and Ube3a−/+ mice injected with vehicle or IGF-2, 20 min before Test. (F) Time spent in the center of an open field by WT and Ube3a−/+ mice following a vehicle or IGF-2 injection given 20 min before Test. The bars for each set from left to right are: WT Vehicle, WT IGF-2, Ube3a−/+ Vehicle, and Ube3a−/+ IGF-2.” left out
as §3
AS is also associated with robust motor impairments, which again are reproduced in the AS mice. Motor coordination and ability is reliably assessed in mice by placing them on an accelerating rotating rod (RotaRod test). […]
(In the rotarod test animals must keep their balance on a rotating rod.)

The subject of assay [7] is Ube3a−/+ mice (mouse model of AS). Briefly: Contextual fear conditioning (CFC) in AS mice. The assay is classed as in vivo. Particulars: s.c. injection 20 min before training, test 24 h after training. The method, then:
(§4) FIG. 1. IGF-2 reverses most behavioral deficits observed in a mouse model of AS. Experimental timelines are shown above graphs. In all experiments mice received a s.c. injection of either vehicle or IGF-2 (↑) 20 min before either training or testing. All data are expressed as the mean±s.e.m. N=8-12 per group. Two-way analysis of variance (ANOVA) followed by Bonferroni post-hoc tests. *P<0.05, **P<0.01, ***P<0.001. (A) Percentage of time spent freezing before (Pre-US) or after (Post-US) the shock delivery during contextual fear conditioning training and at testing at 24 hours (h) after training (Test) of normal mice (wild type, WT), which served as controls and Ube3a−/+ mice (mouse model of AS, also referred to as mice) injected with vehicle or IGF-2. (B) Percent exploration preference for a novel object compared to a familiar object during novel object recognition of WT and Ube3a−/+ mice injected with vehicle or IGF-2, 20 min before training, tested at 4 h and 24 h after training. […]
As measures of learning/cognitive responses, which are known to be altered in Angelman Syndrome (AS), we tested different types of aversive and non-aversive memories. […] We tested memory retention one day later (a time that is used to measure long-term memory) by placing mice back in the same chamber and measured their fear-related (freezing) behavior.

The test system of assay [8] is Ube3a−/+ (AS) mice. Nature of the assay: Marble-burying test in AS mice. Type of assay: in vivo. Particulars: s.c. injection 20 min before test. As to the method:
as §1, with “(F) Time spent in the center of an open field by WT and Ube3a−/+ mice following a vehicle or IGF-2 injection given 20 min before Test. The bars for each set from left to right are: WT Vehicle, WT IGF-2, Ube3a−/+ Vehicle, and Ube3a−/+ IGF-2.” left out

Assay [9] deals with Ube3a−/+ (AS) mice. Briefly: Open field (center entry, anxiety-like behavior) in AS mice. Type of assay: in vivo. To be noted: s.c. injection 20 min before test. The method, then:
as §4, with “training. (C) Percent of correct alternations (% Correct) in a Y-maze of WT and Ube3a−/+ mice injected with vehicle or IGF-2 before testing (Test).” for “training.”
To measure the effect of IGF-2 on anxiety-like behavior we employed open field and measured center entry (which measures anxiety behavior): No effect of IGF-2 treatment was found on AS mice, which remained altered compared to the behavior of normal mice (FIG. 1F).

Where [10] appears, read: s.c. injection 20 min before training (M6P and L2 850 μg/kg), test 4 h after training.
[11] abbreviates: s.c. injection 20 min before training (M6P and L2 850 μg/kg), test 24 h after training.
Setting [12] is: L2 850 μg/kg s.c. before training, 5 d test.

Like-named read-outs stand apart in the source and are kept apart here.

IGF-2 receptor, sequence (P11717 41-2491): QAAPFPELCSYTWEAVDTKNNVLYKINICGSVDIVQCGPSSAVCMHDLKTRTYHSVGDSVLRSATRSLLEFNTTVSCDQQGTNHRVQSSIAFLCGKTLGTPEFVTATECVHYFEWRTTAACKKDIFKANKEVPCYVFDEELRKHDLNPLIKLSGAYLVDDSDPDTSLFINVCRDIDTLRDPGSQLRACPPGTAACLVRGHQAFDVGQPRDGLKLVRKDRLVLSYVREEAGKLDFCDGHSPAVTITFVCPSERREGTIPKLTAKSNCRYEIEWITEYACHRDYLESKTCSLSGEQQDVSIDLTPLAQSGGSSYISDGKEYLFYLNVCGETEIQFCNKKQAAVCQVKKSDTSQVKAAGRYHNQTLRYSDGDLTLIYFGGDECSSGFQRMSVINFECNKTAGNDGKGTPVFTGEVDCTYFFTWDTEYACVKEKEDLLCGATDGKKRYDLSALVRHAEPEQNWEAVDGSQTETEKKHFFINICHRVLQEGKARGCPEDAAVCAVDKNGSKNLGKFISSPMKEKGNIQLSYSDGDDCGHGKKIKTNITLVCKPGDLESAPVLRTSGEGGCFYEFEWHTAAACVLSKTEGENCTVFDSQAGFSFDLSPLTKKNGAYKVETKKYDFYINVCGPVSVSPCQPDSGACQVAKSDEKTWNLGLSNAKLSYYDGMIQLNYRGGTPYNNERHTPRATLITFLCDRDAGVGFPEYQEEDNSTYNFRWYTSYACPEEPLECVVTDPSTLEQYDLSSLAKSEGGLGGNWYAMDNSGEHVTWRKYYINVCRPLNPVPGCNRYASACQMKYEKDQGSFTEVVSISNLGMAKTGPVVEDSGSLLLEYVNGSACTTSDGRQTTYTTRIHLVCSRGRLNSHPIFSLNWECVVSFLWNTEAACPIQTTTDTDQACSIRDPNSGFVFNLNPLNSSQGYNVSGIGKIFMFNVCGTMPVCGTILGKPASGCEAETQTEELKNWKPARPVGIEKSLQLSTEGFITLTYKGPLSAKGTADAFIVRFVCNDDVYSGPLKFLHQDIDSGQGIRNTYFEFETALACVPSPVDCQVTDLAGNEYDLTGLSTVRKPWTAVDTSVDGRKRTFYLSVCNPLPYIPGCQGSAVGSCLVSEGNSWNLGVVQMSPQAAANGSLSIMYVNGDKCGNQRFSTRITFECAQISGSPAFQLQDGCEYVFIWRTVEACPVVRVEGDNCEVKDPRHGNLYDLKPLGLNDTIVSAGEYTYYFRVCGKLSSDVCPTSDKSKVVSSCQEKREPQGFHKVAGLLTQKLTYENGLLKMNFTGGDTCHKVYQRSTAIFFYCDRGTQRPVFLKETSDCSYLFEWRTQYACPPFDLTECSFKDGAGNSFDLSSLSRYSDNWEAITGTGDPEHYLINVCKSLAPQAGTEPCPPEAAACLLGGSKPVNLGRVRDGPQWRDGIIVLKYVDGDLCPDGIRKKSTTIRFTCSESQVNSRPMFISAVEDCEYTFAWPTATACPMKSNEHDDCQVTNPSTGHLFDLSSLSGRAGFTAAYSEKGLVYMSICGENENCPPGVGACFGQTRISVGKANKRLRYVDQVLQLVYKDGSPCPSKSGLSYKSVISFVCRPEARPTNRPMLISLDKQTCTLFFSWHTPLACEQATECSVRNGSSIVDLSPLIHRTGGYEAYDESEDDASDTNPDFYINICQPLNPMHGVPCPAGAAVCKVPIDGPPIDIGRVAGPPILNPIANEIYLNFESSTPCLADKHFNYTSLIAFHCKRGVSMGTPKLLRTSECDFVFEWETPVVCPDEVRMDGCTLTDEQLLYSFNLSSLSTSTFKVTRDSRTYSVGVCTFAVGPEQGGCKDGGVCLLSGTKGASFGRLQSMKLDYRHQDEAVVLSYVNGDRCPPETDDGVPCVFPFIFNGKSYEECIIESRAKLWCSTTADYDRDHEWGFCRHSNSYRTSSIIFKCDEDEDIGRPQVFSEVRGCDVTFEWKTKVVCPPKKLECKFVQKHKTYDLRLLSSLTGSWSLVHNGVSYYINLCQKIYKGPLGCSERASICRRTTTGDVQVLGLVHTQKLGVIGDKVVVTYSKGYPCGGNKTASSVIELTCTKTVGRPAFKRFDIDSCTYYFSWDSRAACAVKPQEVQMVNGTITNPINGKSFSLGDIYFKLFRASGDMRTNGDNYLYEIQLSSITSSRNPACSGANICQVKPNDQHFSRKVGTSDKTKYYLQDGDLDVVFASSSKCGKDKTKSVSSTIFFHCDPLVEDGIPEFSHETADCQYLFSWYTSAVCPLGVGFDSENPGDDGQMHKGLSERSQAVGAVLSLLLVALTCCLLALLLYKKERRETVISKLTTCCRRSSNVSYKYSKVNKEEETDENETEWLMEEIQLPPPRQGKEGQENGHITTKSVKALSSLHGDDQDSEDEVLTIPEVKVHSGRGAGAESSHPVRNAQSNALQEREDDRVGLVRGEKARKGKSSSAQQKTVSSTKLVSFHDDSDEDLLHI

As to `O=P(O)(O)OCC1OC(O)C(O)C(O)C1O` (stereo not drawn) [M6P, mannose-6-phosphate], the “Exploration preference for novel object (nOR memory)” value (from here on “Exploration preference”) in assay [1] (setting [10]) was “reversed memory deficits in AS mice”; in assay [1] (setting [11]), “significant memory retention”; in assay [4] (setting [11]), “significant memory retention”. Moreover, the “Correct alternations in Y-maze (exploratory strategy/working memory)” value in assay [2] is listed as “completely reversed the deficit”. For the same compound, the Kd in assay [3] (one of the two known binding sites, Olson et al., J. Biol. Chem. 2004, read-out: Affinity for IGF-2 receptor) was approximately 1 nM; in assay [3] (other of the two known binding sites, Olson et al., J. Biol. Chem. 2004, read-out: Affinity for IGF-2 receptor), approximately 1000 nM. Besides, the “Hindlimb clasping score (motor deficit)” value in assay [5] is “significantly reduced hind limb clasping”.
Turning to “IGF-2: insulin-like growth factor 2 (IGF-2 or IGF-II), IGF-2 receptor agonist ligand”, the “Latency to fall off rotating rod (motor ability)” value in assay [6] is on record as “significant improvement in motor ability”. The “Freezing (long-term memory retention) in contextual fear conditioning” value in [7] is reported as “completely reversed the memory impairment of AS mice”. Moreover, the “Exploration preference” value in [1] (setting [10]) was “completely reversed the memory deficits of AS mice”; in [1] (setting [11]), “significant preference for a novel object”; in assay [4] (setting [11]) it was “significant preference for a novel object”. In addition, in [2], the “Correct alternations in Y-maze (exploratory strategy/working memory)” value is listed as “reverses the repetitive, inflexible behavior”. Further, in [3] (Williams et al., Science 2012, read-out: Kd for IGF-2 receptor), the Kd was 40 to 60 nM. Moreover, the “Marble burying (time spent burying)” value in [8] is listed as “rescued the deficits of the AS mice”. Besides, the “Open field center entry (anxiety-like behavior)” value in assay [9] is on record as “No effect”.
Consider `COC1OC(CCP(=O)(OCOC(=O)OC(C)C)OCOC(=O)OC(C)C)C(O)C(O)C1O` [L2, Methyl 6-Deoxy-6-diisopropyloxycarbonyloxy-methyl-phosphinylmethyl-α-D-mannopyranoside], for which the “Latency to fall off rotating rod (motor ability)” value in assay [6] is given as “significantly improved their motor ability on the RotaRod”. Also, the “Exploration preference” value is on record as “none of the groups (vehicle or L2 injected) showed significant memory” in [1] (setting [12]); “significantly reversed the deficit of AS mice in nOR” in assay [1] (setting [10]); “showed significant memory compared to vehicle-injected groups” in [1] (setting [11]); “none of the groups (vehicle or L2 injected) showed significant memory” in [4] (setting [12]); “significantly enhanced nOR memory retention in WT mice” in assay [4] (s.c. injection 20 min before training (L2 850 μg/kg), test 4 h after training); “showed significant memory compared to vehicle-injected groups” in [4] (setting [11]). For the same compound, the “Hindlimb clasping score (motor deficit)” value in [5] is given as “returned their hindlimb clasping behavior to control levels”.

The values are drawn from patent US12083139B2, “Use of IGF-2 receptor agonist ligands for treatment of Angelman Syndrome and autism” (New York University, priority 2018, dated 2024).
